Reference: publication PMC10797628
Several values for one entry are separate records, joined by “and”; a condition that tells them apart may be missing. Equal entries are not always repeated. Where two headings read alike, the source gives them in different places.

Experiments:
S5.42A 5-HT1B receptor [1] = molecular target: T1, S5.42A 5-HT1B receptor (Homo sapiens, UniProt P28222, S212A); assay: cAMP accumulation in HEK293T cells, S5.42A 5-HT1B; assay type: cell-based; design: host or cells: HEK293T; conditions: point-mutated receptor, 3 independent experiments, read-out: pEC50 5-HT1B Receptor S5.42A (converted)
Procedure: (§1) Briefly, cells transfected with the desired receptor construct and compounds were incubated in the dark for 90 min at 37 °C. After incubation, cAMP detection reagents were added, and TR-FRET was used to quantify the cAMP produced.
(§2) The functional activity of compounds was determined by stimulating cells expressing the desired receptor with FSK and test compound in parallel with 12 known concentrations of cAMP. The known concentrations of cAMP were used to create a standard curve for each experiment that was used to interpolate the unknown values of cAMP in wells with test compounds. […] The EC50 and EMAX values were determined using the “dose response – log[agonist] vs response (three parameter)” nonlinear regression model in Prism and transformed to pEC50 values, reported as mean ± SD.
(§3) Cell Type Receptor Cell Density [Forskolin] Incubation time
(§4) Summary of functional assay conditions at various 5-HT1 receptor point mutation constructs.

human 5-HT1B receptor [2] = molecular target: T2, human 5-HT1B receptor (Homo sapiens, UniProt P28222); assay: Radioligand binding (saturation and competition), WT 5-HT1B; conditions: for higher affinity at 5-HT1B over 5-HT1A receptors: affinity ratio
T2 construct: host or cells: HEK293T

Y5.38F 5-HT1B receptor = molecular target: T3, Y5.38F 5-HT1B receptor (Homo sapiens, UniProt P28222, Y208F); assay: cAMP accumulation in HEK293T cells, Y5.38F 5-HT1B; assay type: cell-based; conditions: point-mutated receptor, 3 independent experiments, read-out: pEC50 5-HT1B Receptor Y5.38F (converted)
T3 construct: host or cells: HEK293T
Procedure: as §1, §2, §3, §4

V45.52I 5-HT1D receptor [3] = molecular target: T4, V45.52I 5-HT1D receptor (Homo sapiens, UniProt P28221, V190I); assay: Radioligand binding, V45.52I 5-HT1D
Procedure: (§5) 48 hours after transfection with the desired receptor construct, cells were isolated for saturation and competition binding assays as previously described.[47],[48],[57] Saturation and competition radioligand binding assays were conducted in an assay buffer consisting of 50 mM Tris HCl, 10 mM MgCl2, and 0.1 mM EDTA in filtered deionized water. […] Briefly, 5–10 μg of the receptor protein, as determined by a Thermo Fisher Pierce BCA protein assay kit, was incubated with 8 concentrations of radioligand in triplicate to determine total binding. […] Nonspecific binding was determined as above for saturation assays.
(§6) For radioligand binding data, nonspecific binding was subtracted from the total binding to get specific binding. Saturation binding data was fit to the “binding saturation-specific binding with hill slope” model. Competition binding data were fit to the “binding competition-one-site fit Ki” non-linear regression model and transformed to pKi values, reported as mean ± SD.
(§7) is 50 mM Tris HCl, 10 mM MgCl2 and 0.1 mM EDTA in filtered deionized water.

V45.52I 5-HT1D receptor [4] = molecular target: T4, V45.52I 5-HT1D receptor; assay: cAMP accumulation in HEK293T cells, V45.52I 5-HT1D; assay type: cell-based; design: host or cells: HEK293T; conditions: point-mutated receptor, 3 independent experiments, read-out: pEC50 5-HT1D Receptor V45.52I (converted)
Procedure: as §1, §2, §3, §4

human 5-HT1A receptor = molecular target: T5, human 5-HT1A receptor (Homo sapiens, UniProt P08908); assay: cAMP accumulation (LANCE Ultra TR-FRET) in HEK293T cells, WT 5-HT1A; assay type: cell-based; conditions: for Emax: HEK-293T; for EC50: cAMP accumulation, HEKt cells, mean ± SD
T5 construct: host or cells: HEK293T
T5 sequence (P08908 1-422): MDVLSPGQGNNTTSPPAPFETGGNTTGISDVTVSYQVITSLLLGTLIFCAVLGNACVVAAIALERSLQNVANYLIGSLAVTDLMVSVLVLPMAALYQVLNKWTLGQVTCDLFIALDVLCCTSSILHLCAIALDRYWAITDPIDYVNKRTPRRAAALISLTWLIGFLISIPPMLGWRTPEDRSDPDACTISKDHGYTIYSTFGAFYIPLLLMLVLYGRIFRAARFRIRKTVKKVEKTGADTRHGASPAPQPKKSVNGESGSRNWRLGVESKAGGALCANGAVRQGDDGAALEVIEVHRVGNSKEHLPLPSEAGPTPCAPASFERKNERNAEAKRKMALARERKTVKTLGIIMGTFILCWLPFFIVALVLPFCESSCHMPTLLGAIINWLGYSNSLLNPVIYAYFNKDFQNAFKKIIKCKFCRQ
Procedure: as §1, §2, §4

S5.42A 5-HT1B receptor [5] = molecular target: T1, S5.42A 5-HT1B receptor; assay: Radioligand binding, S5.42A 5-HT1B
Procedure: as §5, §6, §7

Y5.38F 5-HT1D receptor = Y5.38F 5-HT1D receptor (Homo sapiens, UniProt P28221, Y197F); assay: Radioligand binding, Y5.38F 5-HT1D
Procedure: as §5, §6, §7

Y5.38A 5-HT1D receptor = Y5.38A 5-HT1D receptor (Homo sapiens, UniProt P28221, Y197A); assay: cAMP accumulation in HEK293T cells, Y5.38A 5-HT1D; assay type: cell-based; design: host or cells: HEK293T; conditions: point-mutated receptor, 3 independent experiments, read-out: pEC50 5-HT1D Receptor Y5.38A (converted)
Procedure: as §1, §2, §4

human 5-HT1D receptor [6] = molecular target: T6, human 5-HT1D receptor (Homo sapiens, UniProt P28221); assay: Radioligand binding (saturation and competition), WT 5-HT1D; conditions: for higher affinity at 5-HT1D over 5-HT1A receptors: affinity ratio
T6 construct: host or cells: HEK293T

human 5-HT1B receptor [7] = molecular target: T2, human 5-HT1B receptor; assay: cAMP accumulation (LANCE Ultra TR-FRET) in HEK293T cells, WT 5-HT1B; assay type: cell-based; conditions: for EC50: cAMP accumulation, HEKt cells, mean ± SD; for Emax: HEK-293T
Procedure: as §1, §2, §4

human 5-HT1F receptor = molecular target: T7, human 5-HT1F receptor (Homo sapiens, UniProt P30939); assay: Radioligand binding (saturation and competition), WT 5-HT1F
T7 construct: host or cells: HEK293T
T7 sequence (P30939 1-366): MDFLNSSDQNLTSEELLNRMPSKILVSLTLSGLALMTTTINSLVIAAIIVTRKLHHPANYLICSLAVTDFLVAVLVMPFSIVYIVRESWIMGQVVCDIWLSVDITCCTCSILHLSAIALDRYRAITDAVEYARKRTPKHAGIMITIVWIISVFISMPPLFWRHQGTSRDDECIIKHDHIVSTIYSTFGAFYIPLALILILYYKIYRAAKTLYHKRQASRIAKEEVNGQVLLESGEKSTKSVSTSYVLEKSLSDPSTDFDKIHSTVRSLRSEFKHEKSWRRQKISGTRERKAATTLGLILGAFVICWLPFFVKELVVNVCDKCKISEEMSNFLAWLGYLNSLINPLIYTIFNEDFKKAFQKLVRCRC

S5.42A 5-HT1D receptor = S5.42A 5-HT1D receptor (Homo sapiens, UniProt P28221, S201A); assay: cAMP accumulation in HEK293T cells, S5.42A 5-HT1D; assay type: cell-based; design: host or cells: HEK293T; conditions: point-mutated receptor, 3 independent experiments, read-out: pEC50 5-HT1D Receptor S5.42A (converted)
Procedure: as §1, §2, §4

human 5-HT1D receptor [8] = molecular target: T6, human 5-HT1D receptor; assay: cAMP accumulation (LANCE Ultra TR-FRET) in HEK293T cells, WT 5-HT1D; assay type: cell-based; conditions: for Emax: HEK-293T; for higher functional potency at 5-HT1D over 5-HT1A receptors: cAMP potency ratio; for EC50: cAMP accumulation, HEKt cells, mean ± SD
Procedure: as §1, §2, §4

V45.52I 5-HT1B receptor = V45.52I 5-HT1B receptor (Homo sapiens, UniProt P28222, V201I); assay: Radioligand binding, V45.52I 5-HT1B
Procedure: as §5, §6, §7

[9] = read-out: 5-HT1A EMAX (%), WT receptor, normalized to basal (0%) and 10 μM 5-CT (100%)
[10] = Affinity (pKi ± SD) 5-HT1D, WT receptor, [^3H]5-CT competition, mean ± SD
[11] = read-out: 5-HT1B EMAX (%), WT receptor, normalized to basal (0%) and 10 μM 5-CT (100%)
[12] = read-out: 5-HT1D EMAX (%), WT receptor, normalized to basal (0%) and 10 μM 5-CT (100%)

T2 sequence (P28222 whole entry): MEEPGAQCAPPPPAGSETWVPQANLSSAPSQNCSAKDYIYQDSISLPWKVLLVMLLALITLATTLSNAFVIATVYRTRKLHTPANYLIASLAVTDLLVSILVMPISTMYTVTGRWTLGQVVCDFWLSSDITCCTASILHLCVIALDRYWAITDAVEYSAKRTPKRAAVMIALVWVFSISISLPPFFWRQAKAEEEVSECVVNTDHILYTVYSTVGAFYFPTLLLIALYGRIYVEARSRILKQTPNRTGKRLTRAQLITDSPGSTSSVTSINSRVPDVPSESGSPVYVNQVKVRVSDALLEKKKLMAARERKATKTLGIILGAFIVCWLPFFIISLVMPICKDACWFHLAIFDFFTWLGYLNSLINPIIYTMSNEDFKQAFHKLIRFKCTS
Chain of S5.42A 5-HT1D receptor (P28221 whole entry S201A): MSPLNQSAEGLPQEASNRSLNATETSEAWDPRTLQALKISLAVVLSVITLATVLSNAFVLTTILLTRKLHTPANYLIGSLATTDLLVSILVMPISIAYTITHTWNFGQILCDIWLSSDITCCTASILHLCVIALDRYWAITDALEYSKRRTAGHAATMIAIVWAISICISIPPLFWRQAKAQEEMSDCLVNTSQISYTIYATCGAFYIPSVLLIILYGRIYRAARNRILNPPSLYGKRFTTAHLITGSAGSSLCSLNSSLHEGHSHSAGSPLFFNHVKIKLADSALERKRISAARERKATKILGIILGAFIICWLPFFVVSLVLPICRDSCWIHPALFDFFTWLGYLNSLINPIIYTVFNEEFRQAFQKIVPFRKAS
Chain of V45.52I 5-HT1B receptor (P28222 whole entry V201I): as the sequence (P28222 whole entry) above, with V201I counted along it
T3 sequence (P28222 whole entry Y208F): as the sequence (P28222 whole entry) above, with Y208F counted along it
T4 sequence (P28221 whole entry V190I): as the sequence (P28221 whole entry S201A) above, with V190I, A201S counted along it
Chain of Y5.38A 5-HT1D receptor (P28221 whole entry Y197A): as the sequence (P28221 whole entry S201A) above, with Y197A, A201S counted along it
T1 sequence (P28222 whole entry S212A): as the sequence (P28222 whole entry) above, with S212A counted along it
T6 sequence (P28221 whole entry): as the sequence (P28221 whole entry S201A) above, with A201S counted along it
Chain of Y5.38F 5-HT1D receptor (P28221 whole entry Y197F): as the sequence (P28221 whole entry S201A) above, with Y197F, A201S counted along it

| Structure (SMILES) | EC50 (S5.42A 5-HT1B receptor [1]) | higher affinity at 5-HT1B over 5-HT1A receptors (human 5-HT1B receptor [2]) | EC50 (Y5.38F 5-HT1B receptor) | Ki (V45.52I 5-HT1D receptor [3]) | EC50 (V45.52I 5-HT1D receptor [4]) | Emax (human 5-HT1A receptor; [9]) | Ki (S5.42A 5-HT1B receptor [5]) | Ki (Y5.38F 5-HT1D receptor) | EC50 (Y5.38A 5-HT1D receptor) | Ki (human 5-HT1D receptor [6]; [10]) | higher affinity at 5-HT1D over 5-HT1A receptors (human 5-HT1D receptor [6]) | EC50 (human 5-HT1B receptor [7]; 5-HT1B pEC50, WT receptor) | Emax (human 5-HT1B receptor [7]; [11]) | Ki (human 5-HT1F receptor) | EC50 (S5.42A 5-HT1D receptor) | Emax (human 5-HT1D receptor [8]; [12]) | higher functional potency at 5-HT1D over 5-HT1A receptors (human 5-HT1D receptor [8]) | Ki (V45.52I 5-HT1B receptor) | also measured |
| --- | --- | --- | --- | --- | --- | --- | --- | --- | --- | --- | --- | --- | --- | --- | --- | --- | --- | --- | --- |
| CN(C)[C@H]1CCc2c(cccc2-c2ccccc2F)C1 [(S)-FPT] | 1.02 nM | 2 fold | 0.813 nM | 1.05 nM | 1.48 nM | 90 ± 2% | 2.57 nM | 1.29 nM | 1.45 nM | 1.07 nM | 4 fold | 0.49 nM | > 90% | > 10000 nM | 1.35 nM | 103 ± 3% | ~80 fold | 1.91 nM | 5-HT1B EMAX (%) (human 5-HT1B receptor [7]; WT receptor, normalized to basal (0%) and 10 μM 5-CT (100%)): 100 ± 2% |
| CN(C)[C@H]1CCc2c(cccc2-c2cccc3ccccc23)C1 [(S)-NAP] | 35.5 nM | 10 fold | 35.5 nM | 37.2 nM | 257 nM | 72 ± 4% | 5.89 nM | 0.661 nM | 288 nM | 0.832 nM | 70 fold | 34.7 nM | 30 ± 4% | 5370 nM | 10 nM | 90 ± 3% | ~40 fold | 41.7 nM | Ki (human 5-HT1B receptor [2]; Affinity (pKi ± SD) 5-HT1B, WT receptor, [^3H]5-CT competition, mean ± SD): 4.57 nM; EC50 (human 5-HT1A receptor; 5-HT1A pEC50, WT receptor): 389 nM; higher functional potency at 5-HT1B over 5-HT1A receptors (human 5-HT1B receptor [7]; cAMP potency ratio): about 10 fold; EC50 (human 5-HT1D receptor [8]; 5-HT1D pEC50, WT receptor): 8.71 nM |
| Fc1ccccc1-c1cccc2c1CC[C@H](N1CCCC1)C2 [(S)-PFPT] | 316 nM |  | 55 nM | 14.8 nM | 58.9 nM |  | 102 nM | 41.7 nM | 191 nM |  |  |  |  |  | 309 nM |  |  | 14.5 nM | Ki (human 5-HT1B receptor [2]; read-out: Affinity (pKi ± SD) 5-HT1B (converted)): 12 nM; Emax (human 5-HT1A receptor; read-out: 5-HT1A EMAX (%)): 100 ± 2%; EC50 (human 5-HT1A receptor; WT receptor, read-out: 5-HT1A pEC50 (converted)): 1.66 nM; higher functional potency at 5-HT1A over 5-HT1B and 5-HT1D receptors (human 5-HT1A receptor; cAMP potency ratio): ~40 fold and 35 fold; Ki (human 5-HT1D receptor [6]; read-out: Affinity (pKi ± SD) 5-HT1D (converted)): 13.5 nM; Emax (human 5-HT1B receptor [7]; read-out: 5-HT1B EMAX (%)): 99 ± 2%; EC50 (human 5-HT1B receptor [7]; WT receptor, read-out: 5-HT1B pEC50 (converted)): 56.2 nM; Ki (human 5-HT1F receptor; WT receptor, [^3H]5-HT competition, mean ± SD, read-out: Affinity (pKi ± SD) 5-HT1F (converted)): > 10000 nM; Emax (human 5-HT1D receptor [8]; read-out: 5-HT1D EMAX (%)): 98 ± 3%; EC50 (human 5-HT1D receptor [8]; WT receptor, read-out: 5-HT1D pEC50 (converted)): 57.5 nM |
